{"source": "patent US5041426A", "about": "“Immune system enhancing 3-β-d-ribofuranosylthiazolo[4,5-d]pyridimine nucleosides and nucleotides” (priority 1988, dated 1991)", "key": {"YAC-1 cells": {"tested_on": "YAC-1 cells", "assay": "In vitro potentiation of murine natural killer cell activity (mouse spleen cells, 51Cr release)", "format": "cell-based", "procedure": "After incubation the cytotoxicity of the treated and untreated cells was determined against YAC-1 cells.\n^a Spleen cells from mice were treated with 0.05 mM concentration of\namino acids and 5 × 10^-5 M Mercaptoethanol. The effector cells\nwere then tested for their cytotoxic activity against YAC1 target cells i\n4 hr ^51 Cr release assay.\n^a Spleen cells from mice were incubated in the absence and presence\nof various compounds. After incubation, cells were suspended in complete\nmedium and then their cytotoxic activity was determined against YAC1\ntarget cells as described in the text"}, "[1]": {"tested_on": "Mastocytoma (P815) tumor cells", "assay": "In vivo potentiation of cytotoxic lymphocytes activity against mastocytoma tumor cells", "set-up": "species or system mouse", "conditions": "for % Cytotoxicity: DBA/2 mice, compound 7 2 mg/mouse, interleukin-2 50 U per mouse", "procedure": "^a Ten mice in each group were inoculated with 2 × 10^6\ntumor cells. After 5 hours, saline or nucleoside compound 7 solution (2\nmg/mouse) was administered to each mouse. On days 3,5,7 or 9, spleen cell\nwere isolated and their cytotoxicity was determined against P815 tumor\ncells as described in Gonzales and Sharma.\nCompound 7 was tested to determine whether or not it can increase cytotoxic lymphocytes response against mastocytoma tumor cells. In the test mice were immunized with mastocytoma cells (P815) and after 5 hours compound 7 as a solution was given in a dose of […] per mouse."}, "[2]": {"tested_on": "Human Peripheral Blood Mononuclear Cells", "assay": "In vitro potentiation of IgM production by human PBMNC or B cells (ELISA)", "format": "cell-based", "procedure": "After incubation, supernatants were harvested and checked for […]"}, "Mouse Cytomegalovirus": {"tested_on": "Mouse Cytomegalovirus", "assay": "Antiviral activity against mouse cytomegalovirus infection in mice"}, "P8/5 tumor target cells": {"tested_on": "P8/5 tumor target cells", "assay": "Activation of macrophages following single injection in CBA/CaJ mice", "format": "in vivo", "conditions": "Mus musculus, Macrophage", "procedure": "The activity of compound 7 with respect to its ability to activate macrophages was tested by injecting CBA/CaJ mice with a single dose of compound 7 (2 mg per mouse) and after 24 hours the cytotoxicity of the spleen cells (SC), non adherent SC and adherent SC was determined.\n^a A group of four mice (CBA/CaJ) were injected with 2 mg/mouse of\ncompound -7 solution. Control group received saline. After 24 hours of\ninjection, spleens were harvested. Adherent and nonadherent cells were\nseparated by incubation of spleen cells on plastic plates for one hour.\nCell suspension of spleen cells, nonadherent cells (NC) and adherent cell\n(AC) were prepared in complete medium. Cytotoxicity of SC, NC and AC was\nthen measured against P8/5 tumor t arget cells in 4 hrs and 20 hrs\nchromium release assay."}, "[3]": {"tested_on": "Reticulum-cell Sarcoma M5076", "assay": "Reduction of reticulum-cell sarcoma metastatic foci in mice", "format": "in vivo, mouse", "procedure": "Utilizing the protocol of Alessandri, G., Giavazzi, R., Falautano, P., Spreafico, F., Garattini, S., and Mantovani, A., European J. Cancer, 17:651-658, 1981, the antimetastatic activity of Compound 7 is seen in a sarcoma M5076 tumor system.\nFragments of reticulum-cell sarcoma M5076 were introduced into mice. The animals were treated with compound 7 for 20 days at various dosages. After treatment, the required tissues were collected, fixed in Bouin's solution and subjected to microscopic observation to enumerate metastatic foci. The results are shown in table 26 as the number of metastatic foci and table 27 as the number of mice with metastatic foci. In table 26 both the range and the median number of foci for each test group is indicated.\n^a Fragments of reticulumcell sarcoma M5076 (≈14 mg) were\nimplanted sc in the left flank of BDF1 female mice and ip bolus\ninjections of drug were initiated 24 hrs later. The drug was delivered on\nthe basis of 0.01 ml/g mouse weight. Control mice received a 0.09%\nsolution of NaCl delivered on the same basis. Seven mice were used per\ntreatment group. Treatment give qd for days 1- 20."}, "Rat Coronavirus": {"tested_on": "Rat Coronavirus", "assay": "Antiviral activity against rat coronavirus infection in suckling rats", "format": "in vivo", "conditions": "half daily doses at -24 and -18 h, of rats that died", "source_text": "Four to five day old suckling rats were infected intranasally with rat coronavirus. One day previously a divided intraperitoneal dose of compound 7 or placebo was given. As shown in the following Table 19, a high percentage of the rats treated with compound 7 survived this lung infection. Further the rats that died lived longer than the placebo-treated controls.\n^b Of rats that died. Survivors lived through 21 days."}, "[4]": {"conditions": "62 mg/kg ip qd days 1-20, p < 0.005"}}, "note": "Several values for one entry are separate records, joined by “and”; a condition that tells them apart may be missing. Identical values can stand only once.", "data": [{"smiles": "Nc1nc2c(sc(=O)n2[C@@H]2O[C@H](CO)[C@@H](O)[C@H]2O)c(=O)[nH]1", "note": "[Compound 7, 5-Amino-3-β-D-ribofuranosylthiazolo[4,5-d]pyrimidine-2,7(6H)-dione]", "values": [{"measurement": "natural killer cell activity compared to Poly I:C", "setting": "YAC-1 cells; 0.05 mM, 20 to 44 h", "value": "increased activity compared to Poly I:C"}, {"measurement": "% Natural Killer Cell Cytotoxicity", "setting": "YAC-1 cells; C57BL/6J spleen cells, treatment 0 h, compound 7 at 0.05 mM", "value": 18, "unit": "%"}, {"measurement": "% Natural Killer Cell Cytotoxicity", "setting": "YAC-1 cells; C57BL/6J spleen cells, treatment 20 h, compound 7 at 0.05 mM", "value": "35% and 25%"}, {"measurement": "% Natural Killer Cell Cytotoxicity", "setting": "YAC-1 cells; C57BL/6J spleen cells, treatment 44 h, compound 7 at 0.05 mM", "value": "34% and 22%"}, {"measurement": "% Natural Killer Cell Cytotoxicity", "setting": "YAC-1 cells; CBA/CaJ spleen cells, treatment 0 h, compound 7 at 0.05 mM", "value": "15% and 23%"}, {"measurement": "% Natural Killer Cell Cytotoxicity", "setting": "YAC-1 cells; CBA/CaJ spleen cells, treatment 20 h, compound 7 at 0.05 mM", "value": "34% and 62%"}, {"measurement": "% Natural Killer Cell Cytotoxicity", "setting": "YAC-1 cells; CBA/CaJ spleen cells, treatment 44 h, compound 7 at 0.05 mM", "value": "31% and 44%"}, {"measurement": "% Natural Killer Cell Cytotoxicity", "setting": "YAC-1 cells; Table 21, 0.05 mM", "value": "34.5% and 25% and 28%"}, {"measurement": "% Cytotoxicity", "setting": "[1]; day 3, 4320 min", "value": 30, "unit": "%"}, {"measurement": "% Cytotoxicity", "setting": "[1]; day 5, 7200 min", "value": 24, "unit": "%"}, {"measurement": "% Cytotoxicity", "setting": "[1]; day 7, 10080 min", "value": 32, "unit": "%"}, {"measurement": "% Cytotoxicity", "setting": "[1]; day 9, 12960 min", "value": 27, "unit": "%"}, {"measurement": "cytotoxicity versus control group", "setting": "[1]; p<0.05", "value": "statistically significant higherly cytotoxicity than the control group"}, {"measurement": "increase of IgM over cultures without compound 7", "setting": "[2]; SAC activated PBMNC", "value": "over a two fold increase"}, {"measurement": "increase in IgM production", "setting": "[2]; up to", "value": "up to 34 fold"}, {"measurement": "Mean Survival Time", "setting": "Mouse Cytomegalovirus; 50 mg/kg/day, once a day at -2 h and days 2, 4, 6 (therapeutic)", "value": "6.3 ± 1.1", "unit": "days"}, {"measurement": "Mean Survival Time", "setting": "Mouse Cytomegalovirus; 50 mg/kg/day, single dose 24 h pre-virus (prophylactic)", "value": "6.5 ± 0.8", "unit": "days"}, {"measurement": "Mean Survival Time", "setting": "Mouse Cytomegalovirus; 100 mg/kg/day, once a day at -2 h and days 2, 4, 6 (therapeutic)", "value": "6.0 ± 0.8", "unit": "days"}, {"measurement": "Mean Survival Time", "setting": "Mouse Cytomegalovirus; 100 mg/kg/day, single dose 24 h pre-virus (prophylactic)", "value": "7.0 ± 1.4", "unit": "days"}, {"measurement": "cure", "setting": "Mouse Cytomegalovirus; 200 mg per kg, prophylactic mode", "value": 100, "unit": "%"}, {"measurement": "Mean Survival Time", "setting": "Mouse Cytomegalovirus; 200 mg/kg/day, half-daily doses 24 and 16 h pre-virus (prophylactic)", "value": "> 21", "unit": "days"}, {"measurement": "cytotoxicity at 2 mg", "setting": "P8/5 tumor target cells; 4 h, adherent cells, 4 hrs assay", "value": 37, "unit": "%"}, {"measurement": "cytotoxicity at 2 mg", "setting": "P8/5 tumor target cells; 4 h, nonadherent spleen cells, 4 hrs assay", "value": 45, "unit": "%"}, {"measurement": "cytotoxicity at 2 mg", "setting": "P8/5 tumor target cells; 20 h, adherent cells, 20 hrs assay", "value": 69, "unit": "%"}, {"measurement": "cytotoxicity at 2 mg", "setting": "P8/5 tumor target cells; 20 h, nonadherent spleen cells, 20 hrs assay", "value": 70, "unit": "%"}, {"measurement": "Mice With Metastatic Foci in Lung (+/7)", "setting": "[3]; 37 mg/kg ip qd days 1-20", "value": "7/7"}, {"measurement": "Number of Metastatic Foci in Liver, Range", "setting": "[3]; 37 mg/kg ip qd days 1-20", "value": "0-17"}, {"measurement": "Number of Metastatic Foci in Lung, Range", "setting": "[3]; 37 mg/kg ip qd days 1-20", "value": "1-11"}, {"measurement": "Number of Metastatic Foci in Liver, Medium", "setting": "[3]; 37 mg/kg ip qd days 1-20, p < 0.005", "value": 1}, {"measurement": "Number of Metastatic Foci in Lung, Median", "setting": "[3]; 37 mg/kg ip qd days 1-20, p < 0.01", "value": 6}, {"measurement": "Mice With Metastatic Foci in Liver (+/7)", "setting": "[3]; 37 mg/kg ip qd days 1-20, p < 0.05", "value": "4/7"}, {"measurement": "Mice With Metastatic Foci in Lung (+/7)", "setting": "[3]; 62 mg/kg ip qd days 1-20", "value": "6/7"}, {"measurement": "Number of Metastatic Foci in Liver, Range", "setting": "[3]; 62 mg/kg ip qd days 1-20", "value": "0-1"}, {"measurement": "Number of Metastatic Foci in Lung, Range", "setting": "[3]; 62 mg/kg ip qd days 1-20", "value": "0-29"}, {"measurement": "Mice With Metastatic Foci in Liver (+/7)", "setting": "[3]; [4]", "value": "1/7"}, {"measurement": "Number of Metastatic Foci in Liver, Medium", "setting": "[3]; [4]", "value": 0}, {"measurement": "Number of Metastatic Foci in Lung, Median", "setting": "[3]; 62 mg/kg ip qd days 1-20, p < 0.09", "value": 2}, {"measurement": "Number of Metastatic Foci in Liver, Range", "setting": "[3]; 104 mg/kg ip qd days 1-20", "value": "0-0"}, {"measurement": "Number of Metastatic Foci in Lung, Range", "setting": "[3]; 104 mg/kg ip qd days 1-20", "value": "0-4"}, {"measurement": "Mice With Metastatic Foci in Liver (+/7)", "setting": "[3]; 104 mg/kg ip qd days 1-20, p < 0.0005", "value": "0/7"}, {"measurement": "Number of Metastatic Foci in Liver, Medium", "setting": "[3]; 104 mg/kg ip qd days 1-20, p < 0.0009", "value": 0}, {"measurement": "Number of Metastatic Foci in Lung, Median", "setting": "[3]; 104 mg/kg ip qd days 1-20, p < 0.003", "value": 0}, {"measurement": "Mice With Metastatic Foci in Lung (+/7)", "setting": "[3]; 104 mg/kg ip qd days 1-20, p < 0.025", "value": "3/7"}, {"measurement": "Mean Survival Time", "setting": "Rat Coronavirus; 50", "value": "10.1 ± 2.3", "unit": "days"}, {"measurement": "Mean Survival Time", "setting": "Rat Coronavirus; 100", "value": "10.2 ± 1.8", "unit": "days"}, {"measurement": "Mean Survival Time", "setting": "Rat Coronavirus; 200", "value": "13.0 ± 1.0", "unit": "days"}]}]}
